Reference: PMC5797126, “Identification of influenza polymerase inhibitors targeting C-terminal domain of PA through surface plasmon resonance screening” (Scientific Reports, 2018)

Key:
in vitro [1] = details: human
influenza RNP = influenza RNP (Influenza A virus, UniProt P15659); test: cell-based
[2] = test system: influenza virus (A/WSN/33); test: microbe, parasite or virus in culture; assay type: cell-based; details: for IC50: unidentified influenza virus, WSN, MDCK, 24 h, read-out: Viral Yield Reduction Assay IC50
in vitro [3] = details: dog
[4] = molecular target: PAC (C-terminal domain of PA, residues 256–716 of A/WSN/33) (Influenza A virus, UniProt P15659); test: biochemical; assay type: binding, influenza A/WSN/33

SMILES | CC50 at 24 h (in vitro [1]) [µM] | IC50 (influenza RNP) [µM] | IC50 [2] [µM] | CC50 at 24 h (in vitro [3]) [µM] | inhibition of influenza viral yield (in words) [2] | Kd [4] [µM] | cytotoxicity in MDCK cells (in words) (MDCK cells)
O=c1c2ccccc2nc(NCCN2CCNCC2)n1-c1ccccc1 [Compound S1a, 2-[(2-(Piperazino)ethyl)amino]-3-phenylquinazolin-4(3H)-one] | > 100 |  |  |  |  |  | 
Cc1ccccc1-n1c(NCCCN2CCOCC2)nc2ccccc2c1=O [Compound S1b, 2-[(3-Morpholinopropyl)amino]-3-(2-methylphenyl)quinazolin-4(3H)-one] | > 100 | 87.8 ± 21.8 | > 100 | > 100 |  |  | 
Cc1ccc(-n2c(NCCCN3CCOCC3)nc3ccccc3c2=O)cc1 [Compound S1c, 2-[(3-Morpholinopropyl)amino]-3-(4-methylphenyl)quinazolin-4(3H)-one] | > 100 |  |  |  |  |  | 
O=c1c2ccccc2nc(NCCCN2CCOCC2)n1-c1ccc(F)cc1 [Compound S1d, 3-(4-Fluorophenyl)-2-((3-morpholinopropyl)amino)quinazolin-4(3H)-one] | > 100 |  |  |  |  |  | 
O=c1c2c(O)c(Cc3ccccc3)c(=O)n(CCO)c2n(-c2ccccc2)c(=O)n1-c1ccccc1 [Compound S2a, 6-benzyl-5-hydroxy-8-(2-hydroxyethyl)-1,3-diphenylpyrido[2,3-d]pyrimidine-2,4,7(1H,3H,8H)-trione] | 84.6 ± 17.3 | 9.69 ± 3 | 7.74 ± 6.02 | > 100 | dose-dependent inhibition of influenza virus | 1.77 ± 0.78 | slight cytotoxicity at their highest tested concentration
CC(c1ccccc1)c1c(O)c2c(=O)n(-c3ccccc3)c(=O)n(-c3ccccc3)c2[nH]c1=O (centres unmarked) [Compound S2b, 5-hydroxy-1,3-diphenyl-6-(1-phenylethyl)pyrido[2,3-d]pyrimidine-2,4,7(1H,3H,8H)-trione] | > 100 | 14.2 ± 3.6 | 4.96 ± 3.84 | 42.8 ± 9 | dose-dependent inhibition of influenza virus | 16.2 ± 8.3 | 
CC(c1ccccc1)c1c(O)c2c(=O)n(-c3ccccc3)c(=O)n(-c3ccccc3)c2n(C)c1=O (centres unmarked) [Compound S2c, 5-hydroxy-8-methyl-1,3-diphenyl-6-(1-phenylethyl)pyrido[2,3-d]pyrimidine-2,4,7(1H,3H,8H)-trione] | 97.1 ± 16.1 |  |  |  |  |  | 
COc1c(C(C)c2ccccc2)c(=O)n(C)c2c1c(=O)n(-c1ccccc1)c(=O)n2-c1ccccc1 (centres unmarked) [Compound S2d, 5-methoxy-8-methyl-1,3-diphenyl-6-(1-phenylethyl)pyrido[2,3-d]pyrimidine-2,4,7(1H,3H,8H)-trione] | 66.6 ± 6.09 | > 12.5 | 3.18 ± 2.44 | 35.6 ± 9.24 | dose-dependent inhibition of influenza virus | > 25 | 
CC(=O)n1c(=O)c(C(C)c2ccccc2)c(O)c2c(=O)n(-c3ccccc3)c(=O)n(-c3ccccc3)c21 (centres unmarked) [Compound S2e, 8-acetyl-5-hydroxy-1,3-diphenyl-6-(1-phenylethyl)pyrido[2,3-d]pyrimidine-2,4,7(1H,3H,8H)-trione] | > 100 | 6.69 ± 7.49 | 5.11 ± 4.22 | 53.1 ± 9.25 | dose-dependent inhibition of influenza virus | 50.9 ± 25.5 | 
Cn1c(=O)c(Nc2ccccc2)c(O)c2c(=O)n(-c3ccccc3)c(=O)n(-c3ccccc3)c21 [Compound S2f, 5-hydroxy-8-methyl-1,3-diphenyl-6-(phenylamino)pyrido[2,3-d]pyrimidine-2,4,7(1H,3H,8H)-trione] | > 100 | 62.4 ± 22.4 | > 100 | > 100 | inability to attenuate influenza virus |  | 
